Data reported in ChEMBL document CHEMBL4627246, “Pyroglutamide-Based P2X7 Receptor Antagonists Targeting Inflammatory Bowel Disease” (J Med Chem, 2020).

What was measured:
Format in all cases: cell-based
CCRF-CEM = experiment: Cytotoxicity against human CCRF-CEM cells assessed as effect on cell growth at 10 uM incubated for 48 hrs by sulforhodamine B assay
MOLT-4 = experiment: Cytotoxicity against human MOLT4 cells assessed as effect on cell growth at 10 uM incubated for 48 hrs by sulforhodamine B assay; conditions: molt-4, 48 h
SR = experiment: Cytotoxicity against human SR cells assessed as effect on cell growth at 10 uM incubated for 48 hrs by sulforhodamine B assay
K562 = experiment: Cytotoxicity against human K562 cells assessed as effect on cell growth at 10 uM incubated for 48 hrs by sulforhodamine B assay; conditions: k562, 48 h
MCF7 = experiment: Cytotoxicity against human MCF7 cells assessed as effect on cell growth at 10 uM incubated for 48 hrs by sulforhodamine B assay; conditions: mcf7, 48 h
SK-OV-3 = experiment: Cytotoxicity against human SKOV3 cells assessed as effect on cell growth at 10 uM incubated for 48 hrs by sulforhodamine B assay; conditions: sk-ov-3, 48 h
NCI-H322M = experiment: Cytotoxicity against human NCI-H322M cells assessed as effect on cell growth at 10 uM incubated for 48 hrs by sulforhodamine B assay
DU-145 = experiment: Cytotoxicity against human DU145 cells assessed as effect on cell growth at 10 uM incubated for 48 hrs by sulforhodamine B assay; conditions: du-145, 48 h
RXF 393 = experiment: Cytotoxicity against human RXF393 cells assessed as effect on cell growth at 10 uM incubated for 48 hrs by sulforhodamine B assay; conditions: rxf 393, 48 h
LOX IMVI = experiment: Cytotoxicity against human LOXIMVI cells assessed as effect on cell growth at 10 uM incubated for 48 hrs by sulforhodamine B assay
HCT-116 = experiment: Cytotoxicity against human HCT116 cells assessed as effect on cell growth at 10 uM incubated for 48 hrs by sulforhodamine B assay; conditions: hct-116, 48 h
UACC-62 = experiment: Cytotoxicity against human UACC62 cells assessed as effect on cell growth at 10 uM incubated for 48 hrs by sulforhodamine B assay; conditions: uacc-62, 48 h
MDA-MB-435 = experiment: Cytotoxicity against human MDA-MB-435 cells assessed as effect on cell growth at 10 uM incubated for 48 hrs by sulforhodamine B assay; conditions: mda-mb-435, 48 h
SNB-19 = experiment: Cytotoxicity against human SNB19 cells assessed as effect on cell growth at 10 uM incubated for 48 hrs by sulforhodamine B assay; conditions: snb-19, 48 h
ACHN = experiment: Cytotoxicity against human ACHN cells assessed as effect on cell growth at 10 uM incubated for 48 hrs by sulforhodamine B assay
TK-10 = experiment: Cytotoxicity against human TK10 cells assessed as effect on cell growth at 10 uM incubated for 48 hrs by sulforhodamine B assay; conditions: tk-10, 48 h
OVCAR-3 = experiment: Cytotoxicity against human OVCAR3 cells assessed as effect on cell growth at 10 uM incubated for 48 hrs by sulforhodamine B assay; conditions: ovcar-3, 48 h
HCC 2998 = experiment: Cytotoxicity against human HCC2998 cells assessed as effect on cell growth at 10 uM incubated for 48 hrs by sulforhodamine B assay; conditions: hcc 2998, 48 h
KM12 = experiment: Cytotoxicity against human KM12 cells assessed as effect on cell growth at 10 uM incubated for 48 hrs by sulforhodamine B assay; conditions: km12, 48 h
MDA-MB-468 = experiment: Cytotoxicity against human MDA-MB-468 cells assessed as effect on cell growth at 10 uM incubated for 48 hrs by sulforhodamine B assay; conditions: mda-mb-468, 48 h

Measured: Activity

O=C(NCc1ccc(Cl)cc1Cl)[C@@H]1CCC(=O)N1c1cccs1
Non-Toxic: all assays above

O=C1N[C@H](C(=O)NCc2ccc(Cl)cc2Cl)C/C1=C/NCc1ccc(Cl)cc1Cl
Non-Toxic: all assays above

O=C(NCc1ccc(Cl)cc1Cl)[C@@H]1CCC(=O)N1Cc1ccc(Cl)cc1
Non-Toxic: all assays above

CN(C)/C=C1\C[C@H]2C(=O)N(/C(=C/N(C)C)c3ccncc3)C(N(C)C)N2C1=O (stereo not given in full)
Non-Toxic: all assays above

O=C(NCc1ccc(Cl)cc1Cl)[C@@H]1CCC(=O)N1C(c1ccccc1)c1ccccc1
Non-Toxic: all assays above

CN1C(=O)CC[C@H]1C(=O)NCc1cc(C(F)(F)F)ccc1Cl
Non-Toxic: all assays above

COc1ccc(CN2C(=O)[C@@H]3C/C(=C\N(C)C)C(=O)N3C2N(C)C)c(OC)c1 (stereo not given in full)
Non-Toxic: all assays above

O=C(NCc1ccccc1)[C@@H]1CCC(=O)N1Cc1ccc(Cl)cc1Cl
Non-Toxic: all assays above

COc1ccc(CNC(=O)[C@@H]2CCC(=O)N2Cc2ccc(Cl)cc2Cl)c(OC)c1
Non-Toxic: all assays above

O=C(NCc1ccc(Cl)cc1Cl)[C@@H]1CCC(=O)N1c1nccs1
Non-Toxic: all assays above

CN(C)/C=C1\C[C@H]2C(=O)N(Cc3ccccc3Cl)C(N(C)C)N2C1=O (stereo not given in full)
Non-Toxic: all assays above

O=C1N[C@H](C(=O)NCc2ccc(Cl)cc2Cl)CO1
Non-Toxic: all assays above

COc1ccc(NC(=O)[C@@H]2CCC(=O)N2)cc1OC
Non-Toxic: all assays above

CN(C)/C=C1\C[C@@H](C(=O)NCc2ccc(Cl)cc2Cl)N(c2cccs2)C1=O
Non-Toxic: all assays above
